# Source: US20080171783A1, “COMPOSITIONS AND METHODS FOR TREATING HYPERPROLIFERATIVE DISEASE” (Migenix Inc., priority 2006, published 2008)
# pIC50: −log10 of the molar value.
# Key:
# UACC-62 = assay: NCI In Vitro Cell Line Screening (SRB); type: cell-based, human; conditions: UACC-62, Melanoma, 48 h; for GI50 / CC50: Homo sapiens; for CC50: read-out: LC50 (the source's name)
# SK-MEL-28 = assay: NCI In Vitro Cell Line Screening (SRB); type: cell-based, human; conditions: SK-MEL-28, Melanoma, 48 h; for GI50 / CC50: Homo sapiens; for CC50: read-out: LC50 (the source's name)
# MDA-MB-435 = assay: NCI In Vitro Cell Line Screening (SRB); type: cell-based, human; conditions: MDA-MB-435, Breast Cancer, 48 h; for GI50 / CC50: Homo sapiens; for CC50: read-out: LC50 (the source's name)
# UO-31 = assay: NCI In Vitro Cell Line Screening (SRB); type: cell-based, human; conditions: UO-31, Renal Cancer, 48 h; for GI50 / CC50: Homo sapiens; for CC50: read-out: LC50 (the source's name)
# NCI-H460 = assay: NCI In Vitro Cell Line Screening (SRB); type: cell-based, human; conditions: NCI-H460, Non-Small Cell Lung Cancer, 48 h; for GI50 / CC50: Homo sapiens; for CC50: read-out: LC50 (the source's name)
# SF-268 = assay: NCI In Vitro Cell Line Screening (SRB); type: cell-based, human; conditions: SF-268, CNS Cancer, 48 h; for GI50 / LC50: Homo sapiens
# 786-0 = assay: NCI In Vitro Cell Line Screening (SRB); type: cell-based, human; conditions: 786-0, Renal Cancer, 48 h; for GI50 / CC50: Homo sapiens; for CC50: read-out: LC50 (the source's name)
# HOP-92 = assay: NCI In Vitro Cell Line Screening (SRB); type: cell-based, human; conditions: HOP-92, Non-Small Cell Lung Cancer, 48 h; for GI50 / CC50: Homo sapiens; for CC50: read-out: LC50 (the source's name)
# NCI-H23 = assay: NCI In Vitro Cell Line Screening (SRB); type: cell-based; conditions: NCI-H23, Non-Small Cell Lung Cancer, 48 h
# NCI-H226 = assay: NCI In Vitro Cell Line Screening (SRB); type: cell-based, human; conditions: NCI-H226, Non-Small Cell Lung Cancer, 48 h; for GI50 / LC50 (concentration killing 50% of cells): Homo sapiens
# OVCAR-4 = assay: NCI In Vitro Cell Line Screening (SRB); type: cell-based, human; conditions: OVCAR-4, Ovarian Cancer, 48 h; for GI50 / CC50: Homo sapiens; for CC50: read-out: LC50 (the source's name)
# MDA-MB-468 = assay: NCI In Vitro Cell Line Screening (SRB); conditions: for TGI: MDA-MB-468, Breast Cancer, 48 h
# SR = assay: NCI In Vitro Cell Line Screening (SRB); type: cell-based; conditions: Leukemia, 48 h
# BT-549 = assay: NCI In Vitro Cell Line Screening (SRB); type: cell-based, human; conditions: BT-549, Breast Cancer, 48 h; for GI50 / CC50: Homo sapiens; for CC50: read-out: LC50 (the source's name)
# human polymerase alpha = molecular target: T1, human polymerase alpha (Homo sapiens, UniProt P09884); assay: Human polymerase alpha inhibition (Replizyme kit); type: biochemical; conditions: dose response
# T1 construct: purchased Replizyme Ltd (Heslington, York, UK)
# T1 sequence (P09884 1-1462): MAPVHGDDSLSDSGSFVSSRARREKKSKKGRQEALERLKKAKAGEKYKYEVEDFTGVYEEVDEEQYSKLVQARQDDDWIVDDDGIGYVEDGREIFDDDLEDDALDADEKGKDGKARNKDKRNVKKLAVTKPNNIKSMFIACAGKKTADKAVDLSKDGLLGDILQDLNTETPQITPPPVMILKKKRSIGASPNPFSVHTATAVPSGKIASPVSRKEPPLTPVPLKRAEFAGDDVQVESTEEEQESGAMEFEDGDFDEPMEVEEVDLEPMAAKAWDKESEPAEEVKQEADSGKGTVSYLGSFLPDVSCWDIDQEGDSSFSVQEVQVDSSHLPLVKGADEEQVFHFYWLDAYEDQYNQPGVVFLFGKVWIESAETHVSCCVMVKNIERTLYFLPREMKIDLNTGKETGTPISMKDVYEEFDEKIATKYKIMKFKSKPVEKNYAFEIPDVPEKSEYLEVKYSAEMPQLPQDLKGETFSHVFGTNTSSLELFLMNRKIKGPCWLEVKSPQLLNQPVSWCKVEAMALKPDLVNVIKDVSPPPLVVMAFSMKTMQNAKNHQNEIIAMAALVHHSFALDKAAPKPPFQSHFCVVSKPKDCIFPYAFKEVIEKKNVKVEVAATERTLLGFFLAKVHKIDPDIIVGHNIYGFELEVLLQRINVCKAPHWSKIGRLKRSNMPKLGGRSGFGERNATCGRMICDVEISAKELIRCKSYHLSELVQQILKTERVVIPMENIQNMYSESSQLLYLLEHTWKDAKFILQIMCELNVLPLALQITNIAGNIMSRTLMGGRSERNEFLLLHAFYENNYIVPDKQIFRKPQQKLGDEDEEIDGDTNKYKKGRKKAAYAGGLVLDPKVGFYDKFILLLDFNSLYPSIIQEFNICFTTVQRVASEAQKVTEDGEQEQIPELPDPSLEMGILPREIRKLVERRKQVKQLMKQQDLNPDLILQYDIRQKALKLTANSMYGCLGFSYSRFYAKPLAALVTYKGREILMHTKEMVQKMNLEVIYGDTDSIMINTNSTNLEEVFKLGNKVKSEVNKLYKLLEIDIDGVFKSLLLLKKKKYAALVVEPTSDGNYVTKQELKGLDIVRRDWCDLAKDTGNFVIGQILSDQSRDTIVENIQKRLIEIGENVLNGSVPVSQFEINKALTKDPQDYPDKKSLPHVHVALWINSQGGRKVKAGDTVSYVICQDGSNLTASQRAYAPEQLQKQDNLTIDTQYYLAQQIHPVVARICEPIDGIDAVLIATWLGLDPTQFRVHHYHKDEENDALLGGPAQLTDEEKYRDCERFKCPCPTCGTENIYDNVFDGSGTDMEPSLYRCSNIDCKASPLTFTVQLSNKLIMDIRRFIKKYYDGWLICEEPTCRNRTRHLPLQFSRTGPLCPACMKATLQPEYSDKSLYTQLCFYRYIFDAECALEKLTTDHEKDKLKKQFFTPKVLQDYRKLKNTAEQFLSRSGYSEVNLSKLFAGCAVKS
# Experimental: Calf polymerase alpha and human polymerase alpha investigations were performed with a kit available from Replizyme Ltd (Heslington, York, UK).
smiles,measurement,setting,value
"CC(C)(C)c1ccc(NC(=O)[C@H](CCCCN)NC(=O)OCC2c3ccccc3-c3ccccc32)cc1 [Compound 105, (S)-[5-AMINO-1-(4-TERT-BUTYL-PHENYLCARBAMOYL)-PENTYL]-CARBAMIC ACID 9H-FLUOREN-9-YLMETHYL ESTER]",GI50,UACC-62,13.7 µM
same,CC50,UACC-62,58.2 µM
same,TGI,UACC-62,28.2 µM
same,GI50,SK-MEL-28,12.3 µM
same,CC50,SK-MEL-28,50.2 µM
same,TGI,SK-MEL-28,24.8 µM
same,GI50,MDA-MB-435,4.27 µM
same,CC50,MDA-MB-435,87.1 µM
same,TGI,MDA-MB-435,21.7 µM
same,GI50,UO-31,1.58 µM
same,CC50,UO-31,6.76 µM
same,TGI,UO-31,3.27 µM
same,GI50,NCI-H460,1.13 µM
same,CC50,NCI-H460,5.37 µM
same,TGI,NCI-H460,2.47 µM
same,GI50,SF-268,17 µM
same,LC50,SF-268,58.3 µM
same,TGI,SF-268,31.5 µM
same,TGI,786-0,2.66 µM
same,GI50,786-0,1.33 µM
same,CC50,786-0,5.3 µM
same,TGI,HOP-92,3.08 µM
same,GI50,HOP-92,1.34 µM
same,CC50,HOP-92,7.1 µM
same,LC50 (concentration giving 50% net cell kill),NCI-H23; Homo sapiens,5.47 µM
same,TGI,NCI-H23,1.95 µM
same,GI50,NCI-H226,22.2 µM
same,LC50 (concentration killing 50% of cells),NCI-H226,89.2 µM
same,TGI,NCI-H226,44.4 µM
same,GI50,OVCAR-4,1.77 µM
same,CC50,OVCAR-4,> 100 µM
same,TGI,OVCAR-4,4.25 µM
same,GI50,"MDA-MB-468; Homo sapiens, MDA-MB-468, 48 h",1.46 µM
same,TGI,MDA-MB-468,3.27 µM
same,GI50,SR; Homo sapiens,0.403 µM
same,CC50,"SR; Homo sapiens, read-out: LC50 (the source's name)",> 100 µM
same,TGI,BT-549,50.6 µM
same,GI50,BT-549,25.3 µM
same,CC50,BT-549,> 100 µM
"Cc1ccc(NC(=O)[C@@H](CCCCN)NC(=O)Nc2ccc3c(c2)Cc2ccccc2-3)cc1 [Compound 173, (R)-6-AMINO-2-[3-(9H-FLUOREN-2-YL)-UREIDO]-HEXANOIC ACID P-TOLYLAMIDE]",GI50,UACC-62,1.15 µM
same,CC50,UACC-62,6.52 µM
same,TGI,UACC-62,2.74 µM
same,GI50,SK-MEL-28,1.43 µM
same,CC50,SK-MEL-28,5.43 µM
same,TGI,SK-MEL-28,2.79 µM
same,GI50,MDA-MB-435,1.98 µM
same,CC50,MDA-MB-435,24.3 µM
same,TGI,MDA-MB-435,6.21 µM
same,GI50,UO-31,> 100 µM
same,CC50,UO-31,> 100 µM
same,TGI,UO-31,>100 µM
same,GI50,NCI-H460,1.86 µM
same,CC50,NCI-H460,6.33 µM
same,TGI,NCI-H460,3.43 µM
same,GI50,SF-268,7.37 µM
same,LC50,SF-268,51 µM
same,TGI,SF-268,21.8 µM
same,TGI,786-0,11.1 µM
same,GI50,786-0,3.42 µM
same,CC50,786-0,91.1 µM
same,TGI,HOP-92,5.13 µM
same,GI50,HOP-92,1.37 µM
same,CC50,HOP-92,38.5 µM
same,GI50,NCI-H23; Homo sapiens,3.45 µM
same,LC50 (concentration giving 50% net cell kill),NCI-H23; Homo sapiens,> 100 µM
same,TGI,NCI-H23,19.6 µM
same,GI50,NCI-H226,1.62 µM
same,LC50 (concentration killing 50% of cells),NCI-H226,45.6 µM
same,TGI,NCI-H226,9.56 µM
same,GI50,OVCAR-4,9.3 µM
same,CC50,OVCAR-4,> 100 µM
same,TGI,OVCAR-4,68.8 µM
same,GI50,"MDA-MB-468; Homo sapiens, MDA-MB-468, 48 h",1.66 µM
same,CC50,"MDA-MB-468; Homo sapiens, MDA-MB-468, 48 h, read-out: LC50",8.31 µM
same,TGI,MDA-MB-468,3.72 µM
same,GI50,SR; Homo sapiens,1.3 µM
same,TGI,SR,3.41 µM
same,TGI,BT-549,26.9 µM
same,GI50,BT-549,11.7 µM
same,CC50,BT-549,61.6 µM
"Cc1cc2cc(NC(=O)[C@H](CCCNC(=O)CN)NC(=O)Nc3ccc4c(c3)Cc3ccccc3-4)ccc2[nH]1 [Compound 297, (S)-5-(2-AMINO-ACETYLAMINO)-2-[3-(9H-FLUOREN-2-YL)-UREIDO]-PENTANOIC ACID (2-METHYL-1H-INDOL-5-YL)-AMIDE]",pIC50,human polymerase alpha,5.00
